Measurements taken from US8404711B2, “5-HT4 receptor agonist compounds for treatment of cognitive disorders” (priority 2009, dated 2013).
Entries after “also recorded” stand apart in the source; their conditions may differ. Structures can show the parent of a compound that is named as a salt.

Tests used:
[1] = tested on: scopolamine-induced cognitive impairment (rat Morris water maze); assay: rat Morris water maze model, scopolamine-induced cognitive impairment; format: in vivo; conditions: for effect on scopolamine-induced memory impairment: 0.03 mg/kg plus scopolamine 0.5 mg/kg; for effect on ability of rats to learn platform location when administered alone: no scopolamine; for reversal of scopolamine-induced cognitive impairment with coadministered 5-HT4 antagonist: compound 0.1 mg/kg i.p. plus GR125487 1 mg/kg i.p. and scopolamine 0.5 mg/kg
Description: Adult, male Sprague-Dawley rats (body weight range 275-400 g) were handled by the investigator for approximately 5 minutes one day prior to each study. […] A clear Perspex® platform was located in a fixed position 1 cm below the surface of the water, and 34 cm from the wall of the tank. Four visual cues (A4-sized pictures of different black and white symbols) were equally spaced on the wall of the tank, just above the water surface. Black curtains were placed around the tank and white noise was generated throughout the test. Each rat was released into the water, facing the tank wall, at a designated starting point (i.e., at the north side of the tank), and allowed 60 seconds to locate the submerged platform after each placement. The escape latency (in seconds) between release of the rat into the water and its locating the platform was recorded automatically by means of a video camera (San Diego Instrument, CA) and tracking software (SMART software, San Diego Instrument, CA). […] The rats were allowed to remain on the platform for 30 seconds to observe the external visual cues and pair them with the relative position of the platform. The rats were then taken off the platform and dried gently with a paper towel before repeating the test three more times (from south, then east and finally west starting positions). After the fourth test, each rat was placed under a heating lamp for 5 minutes before being returned to its home cage. The entire procedure was repeated on days 2 and 3. Over the three days of testing, rats learned to associate the location of the submerged platform (and their only means to escape the water) with the visual cues. […] The number of crossings of the previous platform location and the time spent by the rat in each quadrant were recorded. Animals that had learned the location of the platform spent more time in the appropriate quadrant and repeatedly crossed that quadrant. By performing the probe test, false positives could be excluded from the analysis (i.e., rats that had previously located the platform via a strategy independent of the visual cues, such as swimming randomly until a leg hit the platform). No animals were excluded based on conflicting data between the three days of testing and the probe test. […] The following statistical tests were performed on the data: […] A two-way repeated-measures ANOVA, followed by a Bonferroni post-hoc test, was used to compare the mean escape latency for each of the three successive test days, with p<0.05 indicating a statistically significant difference. […] Pat. […] Pat. […] Donepezil hydrochloride was purchased from Changzhou Dahua Imp. and Exp. Corp. Ltd. […] Louis, Mo.) or Spectrum Chemical Mfg. Corp. (Gardena, Calif.). GR125487 sulfamate was purchased from Tocris (Ellisville, Mo.). […] Doses were expressed with respect to the free base weights of each compound.

human 5-HT4(d) receptor = human 5-HT4(d) receptor (Homo sapiens, UniProt Q13639); assay: cell-based
Sequence of human 5-HT4(d) receptor (Q13639 1-360 isoform Q13639-3): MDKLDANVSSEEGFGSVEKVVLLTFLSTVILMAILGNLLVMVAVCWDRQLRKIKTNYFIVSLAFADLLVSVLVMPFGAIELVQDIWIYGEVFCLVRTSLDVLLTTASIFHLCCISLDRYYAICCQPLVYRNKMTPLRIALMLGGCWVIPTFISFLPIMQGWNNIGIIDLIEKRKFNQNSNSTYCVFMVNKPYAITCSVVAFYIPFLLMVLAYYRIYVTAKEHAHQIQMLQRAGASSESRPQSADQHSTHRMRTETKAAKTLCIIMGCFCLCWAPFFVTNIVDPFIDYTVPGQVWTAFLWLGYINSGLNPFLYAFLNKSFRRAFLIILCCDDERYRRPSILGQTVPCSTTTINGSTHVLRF
Description: HEK-293 (human embryonic kidney) cells stably-transfected with human 5-HT4(d) receptor cDNA and human APP695 cDNA (HEK293-5-HT4(d)-APP695) were grown in Dulbecco's Modified Eagles Medium (DMEM) containing D-glucose supplemented with 10% fetal bovine serum, 2 mM GlutaMax-1, and 100 units penicillin (100 μg), and 100 μg/mL streptomycin in a 5% CO2, humidified incubator at 37° C. Cells were grown under continuous selection pressure by the addition of G418 (500 ug/mL) antibiotic.
HEK293-5-HT4(d)-APP695 cells (3×10^5 cells/well) were serum-starved for 4 hr prior to incubation with agonists for 30 min (unless otherwise stated) at 37° C. The culture medium was aspirated, centrifuged to remove cellular debris and the level of sAPPα determined by Western blot. sAPPα was detected using antibody 6E10 (Signet/Covance) and a goat anti-mouse HRP-conjugated 2° antibody. Immunoreactive bands corresponding to sAPPα were visualized and quantified with ECL substrate (Pierce) and a Fluor Chem HD2 image system (Alpha Innotech). Western blot analysis of samples was conducted in duplicate.
Potency data are reported as pEC50 values, the negative decadic logarithm of the EC50 value, where EC50 is the effective concentration for a 50% maximal response. […] To determine EC50 values, data from independent experiments were fit simultaneously to a sigmoidal concentration response curve using Graph Pad Prism software (slope constrained to unity).

[2] = 0.01 mg/kg plus scopolamine 0.5 mg/kg
[3] = 0.1 mg/kg plus scopolamine 0.5 mg/kg
[4] = 1 mg/kg plus scopolamine 0.5 mg/kg

| Compound | effect on scopolamine-induced cognitive decline when administered alone [1, 2] | effect on scopolamine-induced memory impairment [1] | effect on scopolamine-induced memory impairment, mean escape latency day 3 [1, 3] | effect on ability of rats to learn platform location when administered alone ([1]; 1 mg/kg i.p.) | effect on scopolamine-induced memory impairment, mean escape latency day 3 [1, 4] | reversal of scopolamine-induced cognitive impairment with coadministered 5-HT4 antagonist [1] | further results |
| --- | --- | --- | --- | --- | --- | --- | --- |
| CC(C)n1c(=O)c(C(=O)N[C@H]2C[C@H]3CC[C@@H](C2)N3C[C@@H](O)CN(C)S(C)(=O)=O)cc2ccccc21 [Compound 1, 1-isopropyl-2-oxo-1,2-dihydroquinoline-3-carboxylic acid {(1S,3R,5R)-8-[(R)-2-hydroxy-3-(methanesulfonyl-methyl-amino)propyl]-8-azabicyclo[3.2.1]oct-3-yl}amide] | Neither compound 1 at a dose of 0.01 mg/kg nor donepezil at a dose of 0.1 mg/kg were found to have a significant effect | attenuated the memory impairment | achieved statistical significance | had no effect | attenuated the memory impairment | abolished | effect on scopolamine-induced memory impairment, mean escape latency day 3 ([1]; 1 mg/kg plus scopolamine 0.5 mg/kg, listed as compound 1): had no effect |
| COC(=O)N1CCC(CN2CCC(CNC(=O)c3cccc4[nH]c(C(C)C)nc34)CC2)CC1 [Compound 2, 4-(4-{[(2-isopropyl-1H-benzoimidazole-4-carbonyl)amino]methyl}-piperidin-1-ylmethyl)piperidine-1-carboxylic acid methyl ester] | Neither compound 2 at a dose of 0.01 mg/kg nor donepezil at a dose of 0.1 mg/kg were found to have a significant effect | attenuated the memory impairment | achieved statistical significance | had no effect | had no effect | abolished | effect of antagonist GR113808 on compound-evoked sAPPα release (human 5-HT4(d) receptor; 10 min 1 μM GR113808 before compound at 100 nM): completely blocked; sAPPα release, concentration dependence (human 5-HT4(d) receptor; HEK293 cells with human 5-HT4(d) receptors and human APP695): concentration-dependent increase; Emax (human 5-HT4(d) receptor; read-out: Emax (% response relative to 1 μM 5-HT)): 103% |
| COc1[nH]c2ccc(F)cc2c1C(=O)OCC1CCN(CCNS(C)(=O)=O)CC1 [GR125487, reference compound] |  |  |  |  |  |  | effect in Morris water maze when administered alone ([1]; GR125487 1 mg/kg i.p. alone): had no effect |
| CN1[C@@H]2C[C@@H](OC(=O)[C@H](CO)c3ccccc3)C[C@H]1[C@@H]1O[C@@H]12 [Scopolamine, scopolamine hydrochloride, reference compound] |  |  |  |  |  |  | attenuation of learning versus vehicle ([1]; 0.5 mg/kg i.p., p<0.025): statistically significant attenuation of learning |
| COc1cc2c(cc1OC)C(=O)C(CC1CCN(Cc3ccccc3)CC1)C2 (stereo not shown) [donepezil, donepezil hydrochloride, reference compound] |  |  |  |  |  |  | effect on scopolamine-induced cognitive decline when administered alone ([1]; 0.1 mg/kg plus scopolamine 0.5 mg/kg, hydrochloride): Neither compound 1 at a dose of 0.01 mg/kg nor donepezil at a dose of 0.1 mg/kg were found to have a significant effect; also recorded: Neither compound 2 at a dose of 0.01 mg/kg nor donepezil at a dose of 0.1 mg/kg were found to have a significant effect; reversal of scopolamine-induced cognitive deficit, mean escape latency day 3 ([1]; 3 mg/kg i.p. plus scopolamine 0.5 mg/kg): statistically significant reversal; effect on ability of rats to learn platform location when administered alone ([1]; 3 mg/kg i.p.): had no effect; reversal of scopolamine-induced cognitive deficit, mean escape latency day 3 ([1]; 0.3-3 mg/kg i.p. plus scopolamine 0.5 mg/kg i.p.): dose-dependent manner |
